The test system of this experiment is L1210 leukemia ip in BDF1 mice, survival T/C. Kind of experiment: NCI In Vivo Anticancer Drug Screen. Data for tumor model L1210 Leukemia (intraperitoneal) in B6D2F1 (BDF1) mice. As to conditions: endpoint: mean survival time, higher = longer survival. The gist of the method: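 Transplantable tumor model; survival measured in treated vs vehicle control mice. Value = treated/control.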

Setting [1] is: dose: 100.0 mg/kg/injection, schedule: Q01DX009 (ip), vehicle: saline with Tween-80.
Setting [2] is: dose: 100.0 mg/kg/injection, schedule: Q04DX002 (ip), vehicle: saline.
The mark [3] stands for this setting: dose: 200.0 mg/kg/injection, schedule: Q04DX002 (ip), vehicle: saline.
Setting [4] is: dose: 400.0 mg/kg/injection, schedule: Q04DX002 (ip), vehicle: saline.

Toxic doses and inconclusive results are not listed.

We go through nine molecules from PubChem BioAssay AID248 (DTP/NCI, 2004).

`CCCCN(C)N=Nc1c(C(N)=O)n[nH]c1C`: the T/C was 93 % of control (dose: 1.0 mg/kg/injection, schedule: Q03HX008 (ip), vehicle: Klucel (hydroxypropylcellulose) (HPC)); 99 % of control (dose: 2.0 mg/kg/injection, schedule: Q03HX008 (ip), vehicle: Klucel (hydroxypropylcellulose) (HPC)); 100 % of control (dose: 4.0 mg/kg/injection, schedule: Q03HX008 (ip), vehicle: Klucel (hydroxypropylcellulose) (HPC)); 99 % of control (dose: 4.0 mg/kg/injection, schedule: Q03HX016 (ip), vehicle: Klucel (hydroxypropylcellulose) (HPC)); 107 % of control (dose: 4.0 mg/kg/injection, schedule: Q03HX024 (ip), vehicle: Klucel (hydroxypropylcellulose) (HPC)); 102 % of control (dose: 8.0 mg/kg/injection, schedule: Q01DX009 (ip), vehicle: Klucel (hydroxypropylcellulose) (HPC)). Besides, the T/C runs as follows: (dose: 8.0 mg/kg/injection, schedule: Q03HX008 (ip), vehicle: Klucel (hydroxypropylcellulose) (HPC)) 102 % of control; (dose: 8.0 mg/kg/injection, schedule: Q03HX016 (ip), vehicle: Klucel (hydroxypropylcellulose) (HPC)) 100 % of control; (dose: 8.0 mg/kg/injection, schedule: Q03HX024 (ip), vehicle: Klucel (hydroxypropylcellulose) (HPC)) 108 % of control; (dose: 8.8 mg/kg/injection, schedule: Q01DX007 (ip), vehicle: Klucel (hydroxypropylcellulose) (HPC)) 114 % of control; (dose: 10.0 mg/kg/injection, schedule: Q01DX009 (ip), vehicle: Klucel (hydroxypropylcellulose) (HPC)) 109 % of control; (dose: 13.2 mg/kg/injection, schedule: Q01DX007 (ip), vehicle: Klucel (hydroxypropylcellulose) (HPC)) 120 % of control. Also, the T/C is, setting by setting: (dose: 15.0 mg/kg/injection, schedule: Q01DX009 (ip), vehicle: Klucel (hydroxypropylcellulose) (HPC)) 111 % of control; (dose: 16.0 mg/kg/injection, schedule: Q01DX009 (ip), vehicle: Klucel (hydroxypropylcellulose) (HPC)) 114 % of control; (dose: 16.0 mg/kg/injection, schedule: Q03HX016 (ip), vehicle: Klucel (hydroxypropylcellulose) (HPC)) 119 % of control; (dose: 32.0 mg/kg/injection, schedule: Q01DX001 (ip), vehicle: Klucel (hydroxypropylcellulose) (HPC)) 101 % of control; (dose: 32.0 mg/kg/injection, schedule: Q03HX024 (ip), vehicle: Klucel (hydroxypropylcellulose) (HPC)) 105 % of control; (dose: 32.0 mg/kg/injection, schedule: Q04DX003 (ip), vehicle: Klucel (hydroxypropylcellulose) (HPC)) 105 % of control. Besides, the T/C (dose: 32.0 mg/kg/injection, schedule: Q08DX002 (ip), vehicle: Klucel (hydroxypropylcellulose) (HPC)) is 105 % of control; the T/C (dose: 45.0 mg/kg/injection, schedule: Q01DX009 (ip), vehicle: Klucel (hydroxypropylcellulose) (HPC)) is 150 % of control; the T/C (dose: 64.0 mg/kg/injection, schedule: Q01DX001 (ip), vehicle: Klucel (hydroxypropylcellulose) (HPC)) was 105 % of control; the T/C (dose: 64.0 mg/kg/injection, schedule: Q04DX003 (ip), vehicle: Klucel (hydroxypropylcellulose) (HPC)) is 119 % of control; the T/C (dose: 64.0 mg/kg/injection, schedule: Q08DX002 (ip), vehicle: Klucel (hydroxypropylcellulose) (HPC)) is 115 % of control; the T/C (dose: 67.5 mg/kg/injection, schedule: Q01DX009 (ip), vehicle: Klucel (hydroxypropylcellulose) (HPC)) is 113 % of control. The T/C reads like this: (dose: 128.0 mg/kg/injection, schedule: Q01DX001 (ip), vehicle: Klucel (hydroxypropylcellulose) (HPC)) 121 % of control; (dose: 128.0 mg/kg/injection, schedule: Q08DX002 (ip), vehicle: Klucel (hydroxypropylcellulose) (HPC)) 124 % of control; (dose: 177.0 mg/kg/injection, schedule: Q01DX001 (ip), vehicle: carboxymethylcellulose (CMC)) 124 % of control.

Take `Cc1nn(O)ccc1=N`: the T/C was 104 % of control (dose: 56.25 mg/kg/injection, schedule: Q04DX002 (ip), vehicle: saline); 96 % of control (dose: 112.5 mg/kg/injection, schedule: Q04DX002 (ip), vehicle: saline); 101 % of control (dose: 225.0 mg/kg/injection, schedule: Q04DX002 (ip), vehicle: saline).

On to `CCCCCCCCOc1ccc(C2=NN(c3ccccc3)C(=O)C2)cc1`, for which the T/C was 110 % of control (dose: 50.0 mg/kg/injection, schedule: Q04DX003 (ip), vehicle: Klucel (hydroxypropylcellulose) (HPC)); 96 % of control (dose: 100.0 mg/kg/injection, schedule: Q01DX001 (ip), vehicle: Klucel (hydroxypropylcellulose) (HPC)); 90 % of control (dose: 100.0 mg/kg/injection, schedule: Q04DX003 (ip), vehicle: Klucel (hydroxypropylcellulose) (HPC)); 100 % of control (dose: 200.0 mg/kg/injection, schedule: Q01DX001 (ip), vehicle: Klucel (hydroxypropylcellulose) (HPC)); 100 % of control (dose: 200.0 mg/kg/injection, schedule: Q04DX003 (ip), vehicle: Klucel (hydroxypropylcellulose) (HPC)); 102 % of control (dose: 400.0 mg/kg/injection, schedule: Q01DX001 (ip), vehicle: Klucel (hydroxypropylcellulose) (HPC)).

On to `CN(N=O)c1ccc(/C=C/c2ccnc3ccccc23)cc1`, for which the T/C (dose: 50.0 mg/kg/injection, schedule: Q01DX001 (ip), vehicle: carboxymethylcellulose (CMC)) was 98 % of control; the T/C (dose: 100.0 mg/kg/injection, schedule: Q01DX001 (ip), vehicle: carboxymethylcellulose (CMC)) is 93 % of control; the T/C (dose: 200.0 mg/kg/injection, schedule: Q01DX001 (ip), vehicle: carboxymethylcellulose (CMC)) is 93 % of control; the T/C (dose: 400.0 mg/kg/injection, schedule: Q01DX001 (ip), vehicle: carboxymethylcellulose (CMC)) was 91 % of control.

On to `CC1CCC2(OC1)OC1CC3C4CCC5CC(O)C(O)CC5(C)C4CCC3(C)C1C2C` (configuration not stated), for which the T/C reads like this: (dose: 50.0 mg/kg/injection, schedule: Q01DX009 (ip), vehicle: acetone) 92 % of control; (dose: 100.0 mg/kg/injection, schedule: Q01DX009 (ip), vehicle: acetone) 92 % of control; (dose: 100.0 mg/kg/injection, schedule: Q04DX003 (ip), vehicle: saline) 92 % of control; (dose: 200.0 mg/kg/injection, schedule: Q01DX009 (ip), vehicle: acetone) 100 % of control; (dose: 200.0 mg/kg/injection, schedule: Q04DX003 (ip), vehicle: saline) 97 % of control; (dose: 400.0 mg/kg/injection, schedule: Q01DX009 (ip), vehicle: acetone) 94 % of control. Moreover, under “dose: 400.0 mg/kg/injection, schedule: Q04DX003 (ip), vehicle: saline”, the T/C is 94 % of control.

With `O=C(NS(=O)(=O)c1ccc(Cl)cc1)c1cccc2ccccc12`, the T/C under setting [1] was 91 % of control.

With `CC(C)CCOC(=O)C1OC1(C)c1ccccc1` (configuration not stated), the T/C runs as follows: under setting [2], 101 % of control; under setting [3], 93 % of control; under setting [4], 112 % of control.

Consider `Oc1cc(O)cc(O)c1`, for which the T/C is 96 % of control (dose: 100.0 mg/kg/injection, schedule: Q01DX009 (ip), vehicle: saline); 115 % of control under setting [2]; 100 % of control (dose: 200.0 mg/kg/injection, schedule: Q01DX009 (ip), vehicle: saline); 104 % of control under setting [3]; 100 % of control (dose: 400.0 mg/kg/injection, schedule: Q01DX009 (ip), vehicle: saline); 100 % of control under setting [4].

Turning to `Cc1ccc(NC(=O)CC#N)c(C)c1`, the T/C reads like this: (dose: 50.0 mg/kg/injection, schedule: Q01DX009 (ip), vehicle: saline with Tween-80) 95 % of control; under setting [1], 113 % of control; (dose: 100.0 mg/kg/injection, schedule: Q04DX002 (ip), vehicle: saline with Tween-80) 101 % of control; (dose: 200.0 mg/kg/injection, schedule: Q01DX009 (ip), vehicle: saline with Tween-80) 113 % of control; (dose: 200.0 mg/kg/injection, schedule: Q04DX002 (ip), vehicle: saline with Tween-80) 101 % of control.
